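Growth conditions: 96-well plates. Treatment: test compound, 48 hours, 5 concentrations. Analysis: linear interpolation between bracketing concentrations; unreached endpoints set to highest concentration. Abbreviation: GI50, concentration required for 50% inhibition of growth.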 Activity calls are given as the source filed them. Cut-off read from the data, not from the text of the source: active = GI50 up to about 1.1 µM and inactive = higher.
Key:
Assay in all cases: inhibition of tumour cell growth, NCI panel, 48 h
ACHN = tested on: ACHN
COLO 205 = tested on: COLO 205
HCT-116 = tested on: HCT-116
HL-60 = tested on: HL-60
HOP-92 = tested on: HOP-92
Hs-578T = tested on: Hs-578T
K562 = tested on: K562
KM12 = tested on: KM12
LOX IMVI = tested on: LOX IMVI
M14 = tested on: M14
NCI-H23 = tested on: NCI-H23
OVCAR-3 = tested on: OVCAR-3
OVCAR-5 = tested on: OVCAR-5
OVCAR-8 = tested on: OVCAR-8
SF-295 = tested on: SF-295
SF-539 = tested on: SF-539
SK-MEL-28 = tested on: SK-MEL-28
SK-MEL-5 = tested on: SK-MEL-5
SW-620 = tested on: SW-620
MDA-MB-231 = tested on: MDA-MB-231

| Structure (SMILES) | GI50 (ACHN) | GI50 (COLO 205) | GI50 (HCT-116) | GI50 (HL-60) | GI50 (HOP-92) | GI50 (Hs-578T) | GI50 (K562) | GI50 (KM12) | GI50 (LOX IMVI) | GI50 (M14) | GI50 (NCI-H23) | GI50 (OVCAR-3) | GI50 (OVCAR-5) | GI50 (OVCAR-8) | GI50 (SF-295) | GI50 (SF-539) | GI50 (SK-MEL-28) | GI50 (SK-MEL-5) | GI50 (SW-620) | GI50 (MDA-MB-231) |
| --- | --- | --- | --- | --- | --- | --- | --- | --- | --- | --- | --- | --- | --- | --- | --- | --- | --- | --- | --- | --- |
| CSCSSC | > 100 µM (inactive) | > 100 µM (inactive) | > 100 µM (inactive) | 2.54 µM (inactive) | > 75.5 µM (inactive) | > 100 µM (inactive) | 95.3 µM (inactive) | > 57.3 µM (inactive) | 17.7 µM (inactive) | > 100 µM (inactive) | > 83 µM (inactive) | > 100 µM (inactive) | > 100 µM (inactive) | > 100 µM (inactive) | > 100 µM (inactive) | > 100 µM (inactive) | > 57.3 µM (inactive) | > 100 µM (inactive) | 49.4 µM (inactive) |  |
| CC(=O)NC1C(OCc2ccccc2)OC(CO)C(O)C1OCC(=O)N1CCCC1C(=O)N[C@@H](CCC(=O)NCCCCNc1c2ccccc2nc2cccc([N+](=O)[O-])c12)C(N)=O (stereo partly specified) | 26.6 µM (inactive) | 18.6 µM (inactive) | 22.9 µM (inactive) |  | 9.33 µM (inactive) | 21.1 µM (inactive) | 26.4 µM (inactive) | 31.3 µM (inactive) |  | 16 µM (inactive) | 15.7 µM (inactive) | 21.6 µM (inactive) | 25.8 µM (inactive) | 31 µM (inactive) | 53.8 µM (inactive) | 77.4 µM (inactive) | 81.8 µM (inactive) |  | 11.5 µM (inactive) |  |
| CC(=O)OCC1OC(Sc2nc(-c3ccc(C)cc3)c(C#N)c(=O)n2C2OC(COC(C)=O)C(OC(C)=O)C(OC(C)=O)C2OC(C)=O)C(OC(C)=O)C(OC(C)=O)C1OC(C)=O (stereo unspecified) | > 100 µM (inactive) |  | > 100 µM (inactive) |  |  | > 100 µM (inactive) |  |  | > 100 µM (inactive) |  | > 100 µM (inactive) | > 100 µM (inactive) | > 100 µM (inactive) | > 100 µM (inactive) | > 100 µM (inactive) | > 100 µM (inactive) | > 100 µM (inactive) | > 100 µM (inactive) | > 100 µM (inactive) |  |
| Cc1cc(NS(=O)(=O)c2ccc(/N=N/c3c(Nc4ccccc4)nn(-c4ccc(S(=O)(=O)Nc5ccncn5)cc4)c3C)cc2)no1 | > 100 µM (inactive) | > 100 µM (inactive) | > 100 µM (inactive) |  | > 100 µM (inactive) |  | 86.1 µM (inactive) | > 100 µM (inactive) | > 100 µM (inactive) | > 100 µM (inactive) | > 100 µM (inactive) | > 100 µM (inactive) | > 100 µM (inactive) | > 100 µM (inactive) | > 100 µM (inactive) | > 100 µM (inactive) | > 100 µM (inactive) | > 100 µM (inactive) |  | > 100 µM (inactive) |
| Cc1ccc(-c2nc(-c3cnccn3)n(C3OC(CO)C(O)C(O)C3O)n2)cc1 (stereo unspecified) |  | > 100 µM (inactive) | > 100 µM (inactive) | > 100 µM (inactive) | > 100 µM (inactive) |  | > 100 µM (inactive) | > 100 µM (inactive) | > 100 µM (inactive) | > 100 µM (inactive) | > 100 µM (inactive) | > 100 µM (inactive) | > 100 µM (inactive) | > 100 µM (inactive) | > 100 µM (inactive) | > 100 µM (inactive) | > 100 µM (inactive) | > 100 µM (inactive) | > 100 µM (inactive) | > 100 µM (inactive) |
| COc1ccc(CN2C(=O)C(Cc3cc(OC)c(OC)c(C)c3OC)N(C(=O)OC(C)C)C(=O)/C2=C/c2cc(OC)c(OC)c(C)c2OC)cc1 (stereo unspecified) | > 100 µM (inactive) | 45.2 µM (inactive) | 66.2 µM (inactive) | 7.96 µM (inactive) | > 100 µM (inactive) |  | 41 µM (inactive) | > 100 µM (inactive) | > 100 µM (inactive) | > 100 µM (inactive) | > 100 µM (inactive) | 16.1 µM (inactive) | > 100 µM (inactive) | > 100 µM (inactive) | > 100 µM (inactive) | > 100 µM (inactive) | > 100 µM (inactive) | 46.8 µM (inactive) | > 100 µM (inactive) |  |
| O=c1c(Cl)c(Cl)cnn1CCCl | 0.904 µM (active) | 2.24 µM (inactive) | 5.48 µM (inactive) | 2.19 µM (inactive) | 1.93 µM (inactive) | 3.25 µM (inactive) | 2.06 µM (inactive) | 14.4 µM (inactive) | 2.86 µM (inactive) | 2.67 µM (inactive) | 2.52 µM (inactive) | 3.47 µM (inactive) | 16.5 µM (inactive) | 3.44 µM (inactive) | 16 µM (inactive) | 14.1 µM (inactive) | 2.08 µM (inactive) | 3.4 µM (inactive) | 1.9 µM (inactive) |  |
| O=C(NO)C(=O)Nc1cc(Cl)ccc1Cl | > 100 µM (inactive) | > 100 µM (inactive) | > 100 µM (inactive) | > 100 µM (inactive) | 69.5 µM (inactive) |  | 63.8 µM (inactive) | > 100 µM (inactive) | 16.8 µM (inactive) | > 100 µM (inactive) | > 100 µM (inactive) | 90.6 µM (inactive) | > 100 µM (inactive) | > 100 µM (inactive) | > 100 µM (inactive) | > 100 µM (inactive) | > 100 µM (inactive) | > 100 µM (inactive) | > 100 µM (inactive) |  |
| O=[PH]1c2ccccc2Nc2ccccc21 | > 100 µM (inactive) | > 100 µM (inactive) | > 100 µM (inactive) | 75.7 µM (inactive) | > 100 µM (inactive) |  | 21.6 µM (inactive) | > 100 µM (inactive) | > 100 µM (inactive) | > 100 µM (inactive) | > 100 µM (inactive) | 52.6 µM (inactive) | > 100 µM (inactive) | > 100 µM (inactive) | > 100 µM (inactive) | > 100 µM (inactive) | > 100 µM (inactive) | > 100 µM (inactive) | 63.7 µM (inactive) | 45.9 µM (inactive) |
| Cc1ccccc1NC(=O)Cc1csc2[n+]1C(=O)/C(=C/c1ccc([N+](=O)[O-])cc1)S2 | 24.2 µM (inactive) | 36 µM (inactive) | 37.6 µM (inactive) | 27.7 µM (inactive) | 19.5 µM (inactive) |  |  | 23.7 µM (inactive) | 38.5 µM (inactive) | 32.2 µM (inactive) | 23.9 µM (inactive) | 31.2 µM (inactive) | 37.8 µM (inactive) | 24.8 µM (inactive) | 31.8 µM (inactive) | 29 µM (inactive) | 37.7 µM (inactive) | 27.4 µM (inactive) | 33.6 µM (inactive) | 37.5 µM (inactive) |
| COc1cc([C@@H]2c3cc4c(cc3[C@@H](OC(=O)c3ccc(N)cc3)C3COC(=O)[C@@H]32)OCO4)cc(OC)c1O (stereo partly specified) | 7.74 µM (inactive) | 5.98 µM (inactive) | 4.45 µM (inactive) | 3.1 µM (inactive) | 3.77 µM (inactive) |  | 5.18 µM (inactive) | 11.9 µM (inactive) | 10.6 µM (inactive) | 16.8 µM (inactive) | 3.32 µM (inactive) | 12.9 µM (inactive) | 41.5 µM (inactive) | 4.49 µM (inactive) | 4.25 µM (inactive) | 2.54 µM (inactive) | 9.48 µM (inactive) | 3.59 µM (inactive) | 5.71 µM (inactive) |  |
| O=C(N/N=C/c1ccc(Cl)cc1)c1c(Cl)c(Cl)c(Cl)c(Cl)c1-c1nc2ccccc2[nH]1 | 64.6 µM (inactive) | > 100 µM (inactive) | 40.3 µM (inactive) | > 100 µM (inactive) | 23.6 µM (inactive) | 1.83 µM (inactive) | 47.9 µM (inactive) | 8.36 µM (inactive) | 41.1 µM (inactive) | 86.5 µM (inactive) | > 100 µM (inactive) | > 100 µM (inactive) | > 100 µM (inactive) |  | 0.0405 µM (active) | > 100 µM (inactive) | > 100 µM (inactive) | 49 µM (inactive) | > 100 µM (inactive) |  |
| COc1ccc(COC2CC(OC)OC(C)C2OC(=O)c2ccccc2)cc1 (stereo unspecified) | 24.3 µM (inactive) | 34.6 µM (inactive) | 28.6 µM (inactive) | 20.7 µM (inactive) | 50 µM (inactive) |  | 27.2 µM (inactive) | 34.8 µM (inactive) | 22.6 µM (inactive) | 34.6 µM (inactive) | 28.4 µM (inactive) | 31.9 µM (inactive) | 30.2 µM (inactive) | 31.6 µM (inactive) | 38.5 µM (inactive) | 54.1 µM (inactive) | 41.2 µM (inactive) | 17 µM (inactive) | 46.1 µM (inactive) |  |
| Cc1ccc(-c2n[nH]c(CC#N)n2)cc1 | > 100 µM (inactive) | > 100 µM (inactive) | > 100 µM (inactive) | > 100 µM (inactive) | > 100 µM (inactive) | 39.7 µM (inactive) | > 100 µM (inactive) | > 100 µM (inactive) | > 100 µM (inactive) | > 100 µM (inactive) | > 100 µM (inactive) | > 100 µM (inactive) | > 100 µM (inactive) | > 100 µM (inactive) | > 100 µM (inactive) | > 100 µM (inactive) | > 100 µM (inactive) | > 100 µM (inactive) | > 100 µM (inactive) |  |
| C/C(CC(=O)Nc1ccc([N+](=O)[O-])cc1)=N/N=C(N)N | > 100 µM (inactive) | > 100 µM (inactive) | > 100 µM (inactive) | > 100 µM (inactive) | > 100 µM (inactive) |  | > 100 µM (inactive) | > 100 µM (inactive) | > 100 µM (inactive) | > 100 µM (inactive) | > 100 µM (inactive) | > 100 µM (inactive) | > 100 µM (inactive) | > 100 µM (inactive) | > 100 µM (inactive) | > 100 µM (inactive) | > 100 µM (inactive) | > 100 µM (inactive) | > 100 µM (inactive) |  |

— ChEMBL document CHEMBL1201862, “PubChem BioAssay data set” (2004)
